Converted amounts (≈) assume the structure as drawn.
Legend:
[1] = test system: Gibberella fujikuroi IFO 6349; test: Test 8: MIC by agar dilution process; assay type: cell-based; details: Fusarium fujikuroi, IFO6349, 168 h; Sabouraud's agar medium; 1 week
Description: (§1) Each minimum growth inhibition concentration (MIC) of Compound No. 16 to various microorganisms was measured by the agar dilution process. In the cases of bacteria, the results were observed 24 hours after the inoculation and in the cases of fungi, the results were observed 1 week after the inoculation.

Penicillium italicum = test: Test 8: MIC by agar dilution process; assay type: cell-based; details: 168 h, Sabouraud's agar medium, 1 week
Description: as §1

[2] = test system: Klebsiella pneumoniae IFO 3512; test: Test 8: MIC by agar dilution process; assay type: cell-based; details: IFO3512, Bouillon agar medium, 24 hours
Description: as §1

Pseudomonas aeruginosa = test: Test 8: MIC by agar dilution process; assay type: cell-based; details: Bouillon agar medium, 24 hours
Description: as §1

[3] = test system: Aspergillum fumigatus IFO 4057; test: Test 8: MIC by agar dilution process; assay type: cell-based; details: 168 h; Sabouraud's agar medium; 1 week
Description: as §1

[4] = test system: Aspergillum niger IFO 6341; test: Test 8: MIC by agar dilution process; assay type: cell-based; details: 168 h; Sabouraud's agar medium; 1 week
Description: as §1

[5] = test system: Penicillium citrium IFO 6352; test: Test 8: MIC by agar dilution process; assay type: cell-based; details: IFO6352, 168 h, Sabouraud's agar medium, 1 week
Description: as §1

[6] = test system: Salmonella typhimurium IFO 12529; test: Test 8: MIC by agar dilution process; assay type: cell-based; details: Salmonella enterica; Bouillon agar medium; 24 hours
Description: as §1

Bacillus subtilis PC1219 = test: Test 8: MIC by agar dilution process; assay type: cell-based; details: Bouillon agar medium, 24 hours
Description: as §1

[7] = test system: Chaetomium globosum IFO 6347; test: Test 8: MIC by agar dilution process; assay type: cell-based; details: IFO6347, 168 h, Sabouraud's agar medium, 1 week
Description: as §1

[8] = test system: Penicillium chrysogeum IFO 4626; test: Test 8: MIC by agar dilution process; assay type: cell-based; details: IFO4626, 168 h, Sabouraud's agar medium, 1 week
Description: as §1

[9] = test system: Proteus morganii IFO 3848; test: Test 8: MIC by agar dilution process; assay type: cell-based; details: Morganella morganii, IFO3848; Bouillon agar medium; 24 hours
Description: as §1

[10] = test system: Myrothecium verrucaria IFO 6133; test: Test 8: MIC by agar dilution process; assay type: cell-based; details: Albifimbria verrucaria, IFO6133, 168 h; Sabouraud's agar medium; 1 week
Description: as §1

[11] = test system: Penicillium funiculosum IFO 6354; test: Test 8: MIC by agar dilution process; assay type: cell-based; details: Talaromyces funiculosus, IFO6354, 168 h; Sabouraud's agar medium; 1 week
Description: as §1

[12] = test system: Aureobasidium pullulans IFO 6353; test: Test 8: MIC by agar dilution process; assay type: cell-based; details: IFO6353, 168 h, Sabouraud's agar medium, 1 week
Description: as §1

[13] = test system: Gliocladium virens IFO 9166; test: Test 8: MIC by agar dilution process; assay type: cell-based; details: Trichoderma virens, IFO9166, 168 h; Sabouraud's agar medium; 1 week
Description: as §1

[14] = test system: Staphylococcus aureus 209P; test: Test 8: MIC by agar dilution process; assay type: cell-based; details: Bouillon agar medium, 24 hours
Description: as §1

Trametes sanguinea = test: Test 8: MIC by agar dilution process; assay type: cell-based; details: 168 h, Sabouraud's agar medium, 1 week
Description: as §1

[15] = test system: Aspergillum flavus IFO 6343; test: Test 8: MIC by agar dilution process; assay type: cell-based; details: 168 h; Sabouraud's agar medium; 1 week
Description: as §1

[16] = test system: Serratia marcescens IFO 12648; test: Test 8: MIC by agar dilution process; assay type: cell-based; details: IFO12648, Bouillon agar medium, 24 hours
Description: as §1

Escherichia coli = test: Test 8: MIC by agar dilution process; assay type: cell-based; details: Bouillon agar medium, 24 hours
Description: as §1

Rhizoctonia solani = test: whole plant or invertebrate; assay type: in vivo, Rhizoctonia solani (rice plant, Chukyo Asahi); details: in Oryza sativa, 120 h, read-out: Preventive value
Sphaerotheca fuliginea = test: whole plant or invertebrate; assay type: in vivo, Sphaerotheca fuliginea (cucumber plant, Suyo); details: Podosphaera fuliginea, in Cucumis sativus, 240 h; read-out: Protective value
Pyricularia orzae = test: whole plant or invertebrate; assay type: in vivo, Pyricularia orzae (rice plant, Chukyo Asahi); details: in Oryza sativa, 120 h, read-out: Protective value
Botrytis cinerea = test: Test 9: protective value on cucumber inoculated with Botrytis cinerea; assay type: in vivo, Botrytis cinerea (cucumber plant, Suyo); details: 72 h; for pest or weed control at 250 ppm: 10 ml sprayed, lesion length three days after inoculation
In short: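 Cucumber at one-leaf stage sprayed with active ingredient at 250 ppm, kept in a greenhouse at 24–25 °C for one day, then inoculated with a PDA-grown Botrytis cinerea agar disc. Lesion length measured 3 days after inoculation and converted to protective value; some comparisons used lower concentrations.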

Plasmopara viticola = test: whole plant or invertebrate; assay type: in vivo, Plasmopara viticola (cucumber plant, Suyo); details: in Cucumis sativus, 144 h, read-out: Protective value
Phytophthora infestans = assay type: cell-based; details: PDA medium; fungus A: Phytophthora infestans
Plutella xylostella = test: Test 11: mortality of larvae of Plutella xylostella on treated cabbage leaf; assay type: in vivo; details: foliar, 192 h, leaf dipped, emulsifiable concentrate Composition No. 3, eight days, read-out: Percent mortality
Source text: Each emulsifiable concentrate of each active ingredient as Composition No. 3 was dispersed in water at a concentration of 800 ppm. Each leaf of cabbage was dipped into each emulsion for about 10 seconds and taken up and dried in air.
A wet filter paper was put in each Petri dish (diameter of 9 cm), and each treated leaf was put on the filter paper. Larvae of Plutella xylostella at 2nd to 3rd instar were charged and the dish was covered with a cap and kept in a constant temperature chamber with lighting at 28° C. Eight days after the charge, mortality was measured and each percent mortality was calculated.

[17] = test system: Collectotrichum lagenarium; test: Test 3: protective value on cucumber inoculated with Collectotrichum lagenarium; assay type: in vivo, Collectotrichum lagenarium (cucumber plant, Suyo); details: 500 ppm, 10 ml sprayed; lesions six days after inoculation
Description: In each unglazed pot having a diameter of 9 cm, cucumber plant (Suyo) was cultured. At one leaf stage, 10 ml. of each solution of each active ingredient having a concentration of 500 ppm was sprayed by a spray gun. After maintaining the pot in a green-house at 24° to 25° C. for one day, each spore suspension of Collectotrichum lagenarium was sprayed. Six days after the inoculation, number of lesions on the first leaf of seedling was observed. The protective value was calculated as Test 1.

Venturia inaequalie = test: Test 5: minimum growth inhibition concentration on PDA medium; assay type: cell-based; details: fungus D: Venturia inaequalie
Description: (§2) A mixture of 9 ml. of a potato-glucose-agar medium (PDA medium) and 1 ml. of each active ingredient was poured into each Petri-dish to be solidified. […] The following fungi were used.

Alternaria solani = test: as above; assay type: cell-based; details: fungus C: Alternaria solani
Description: as §2

Diaporthe citri = test: as above; assay type: cell-based; details: fungus B: Diaporthe citri
Description: as §2

`O=[N+]([O-])c1cc(C(F)(F)F)c(Cl)c([N+](=O)[O-])c1Nc1c(Cl)cncc1Cl` [Compound No. 16] gave an MIC [1] of 12.5 µg/mL (≈ 29 µM), an MIC (Penicillium italicum) of 3.12 µg/mL (≈ 7.23 µM) and an MIC [2] of 12.5 µg/mL (≈ 29 µM). The MIC (Pseudomonas aeruginosa) was 12.5 µg/mL (≈ 29 µM), the MIC [3] was 6.25 µg/mL (≈ 14.5 µM) and the MIC [4] was 3.12 µg/mL (≈ 7.23 µM). For the same molecule, the MIC [5] was 6.25 µg/mL (≈ 14.5 µM), the MIC [6] was 6.25 µg/mL (≈ 14.5 µM) and the MIC (Bacillus subtilis PC1219) was under 0.2 µg/mL. For the same molecule, the MIC [7] was 3.12 µg/mL (≈ 7.23 µM), the MIC [8] was 3.12 µg/mL (≈ 7.23 µM) and the MIC [9] was 6.25 µg/mL (≈ 14.5 µM). It also gave an MIC [10] of 6.25 µg/mL (≈ 14.5 µM), an MIC [11] of 6.25 µg/mL (≈ 14.5 µM) and an MIC [12] of 6.25 µg/mL (≈ 14.5 µM). The MIC [13] was 12.5 µg/mL (≈ 29 µM), the MIC [14] was under 0.2 µg/mL and the MIC (Trametes sanguinea) was 6.25 µg/mL (≈ 14.5 µM). For the same molecule, the MIC [15] was 6.25 µg/mL (≈ 14.5 µM), the MIC [16] was 6.25 µg/mL (≈ 14.5 µM) and the MIC (Escherichia coli) was 12.5 µg/mL (≈ 29 µM). It also gave a pest or weed control at 100 ppm (Rhizoctonia solani) of 100%, a pest or weed control at 500 ppm (Sphaerotheca fuliginea) of 100% and a pest or weed control at 100 ppm (Pyricularia orzae) of 100%. The pest or weed control at 250 ppm (Botrytis cinerea) was 100%.
For `O=[N+]([O-])c1cc(C(F)(F)F)c(Cl)c([N+](=O)[O-])c1Nc1ncc(C(F)(F)F)cc1Cl` [Compound No. 7, N-(3-chloro-5-trifluoromethyl-2-pyridyl)-2,6-dinitro-3-chloro-4-trifluoromethylaniline], the pest or weed control at 500 ppm (Plasmopara viticola) was 100%, the “minimum growth inhibition concentration” value (Phytophthora infestans) was 100 and the pest or weed control at 100 ppm (Rhizoctonia solani) was 100%. It also gave a pest or weed control at 500 ppm (Sphaerotheca fuliginea) of 100%, a pest or weed control at 12.5 ppm (Pyricularia orzae) of 98% and a pest or weed control at 25 ppm (Pyricularia orzae) of 100%. It also gave a pest or weed control at 100 ppm (Pyricularia orzae) of 100%, a mortality at 800 ppm (Plutella xylostella) of 100% and a Protective value [17] of 100%. For the same molecule, the pest or weed control at 62.5 ppm (Botrytis cinerea; 62.5 ppm) was 100%, the pest or weed control at 250 ppm (Botrytis cinerea) was 100% and the “minimum growth inhibition concentration” value (Venturia inaequalie) was under 1. The “minimum growth inhibition concentration” value (Alternaria solani) was under 1 and the “minimum growth inhibition concentration” value (Diaporthe citri) was under 1.

From patent US4331670A (priority 1979, dated 1982)
